{"source": "patent US20260176289A1", "about": "“SMALL MOLECULE INHIBITORS OF KRAS PROTEINS” (Merck Sharp & Dohme LLC, priority 2022, published 2026)", "format_in_all_cases": "biochemical", "key": {"[1]": {"target": "KRAS-G12C (C51S/C80L/C118S) (Homo sapiens, UniProt P01116, C118S/C51S/C80L/G12C)", "sequence (P01116 with tags, fused parts or gaps isoform P01116-2 G12C/C51S/C80L/C118S)": "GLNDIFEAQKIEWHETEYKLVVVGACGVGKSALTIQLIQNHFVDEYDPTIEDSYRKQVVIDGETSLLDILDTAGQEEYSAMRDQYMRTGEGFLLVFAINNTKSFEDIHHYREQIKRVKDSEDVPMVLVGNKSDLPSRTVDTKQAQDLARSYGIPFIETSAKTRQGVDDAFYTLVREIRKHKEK", "test": "SOS-catalyzed nucleotide exchange assay (Procedure A, TR-FRET), KRAS-G12C", "conditions": "nucleotide exchange, Procedure A; read-out: KRAS G12C GNE IC50", "summary_of_the_method": "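RAS (G12C carries C51S/C80L/C118S) loaded with Bodipy-GDP, complexed with Tb-streptavidin; cpd 60 min RT; + SOS/3 mM GTP. G12C 3/40 nM, WT 1/40, NRAS 1.25/40 nM RAS/SOS, 60 min; G12V 1.25/160 nM, 90 min. Normalized to DMSO and saturating inhibitor; 4PL fit.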"}, "KRAS-G12D": {"target": "KRAS-G12D (Homo sapiens, UniProt P01116, G12D)", "sequence (P01116 with tags, fused parts or gaps isoform P01116-2 G12D)": "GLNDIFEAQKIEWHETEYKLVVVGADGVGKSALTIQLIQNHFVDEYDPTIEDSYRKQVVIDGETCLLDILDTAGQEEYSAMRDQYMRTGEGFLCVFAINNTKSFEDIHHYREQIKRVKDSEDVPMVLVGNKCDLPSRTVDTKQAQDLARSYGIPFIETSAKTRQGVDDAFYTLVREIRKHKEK", "test": "SOS-catalyzed nucleotide exchange assay (Procedure A, TR-FRET), KRAS-G12D", "conditions": "nucleotide exchange, read-out: KRAS G12D GNE IC50", "summary_of_the_method": "(§1)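 Signal ratio (520/495 nm, excitation 340 nm) reports Bodipy-GDP retention on biotinylated RAS after SOS-catalyzed exchange with 3 mM GTP. SOS was 40 nM, except 160 nM for G12V. Room-temperature exchange lasted 60 min (90 min for G12V), following a 60 min compound preincubation.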"}, "KRAS-G13D": {"target": "KRAS-G13D (Homo sapiens, UniProt P01116, G13D)", "sequence (P01116 with tags, fused parts or gaps isoform P01116-2 G13D)": "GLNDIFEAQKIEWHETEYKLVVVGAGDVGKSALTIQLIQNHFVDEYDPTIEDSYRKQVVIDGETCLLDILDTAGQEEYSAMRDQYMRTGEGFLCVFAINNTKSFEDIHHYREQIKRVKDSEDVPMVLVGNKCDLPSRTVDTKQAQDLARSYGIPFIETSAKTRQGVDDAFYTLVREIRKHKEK", "test": "SOS-catalyzed nucleotide exchange assay (Procedure A, TR-FRET), KRAS-G13D", "conditions": "nucleotide exchange, Procedure A; read-out: KRAS G13D GNE IC50"}, "HRAS": {"target": "HRAS (Homo sapiens, UniProt P01112)", "sequence (P01112 with tags, fused parts or gaps)": "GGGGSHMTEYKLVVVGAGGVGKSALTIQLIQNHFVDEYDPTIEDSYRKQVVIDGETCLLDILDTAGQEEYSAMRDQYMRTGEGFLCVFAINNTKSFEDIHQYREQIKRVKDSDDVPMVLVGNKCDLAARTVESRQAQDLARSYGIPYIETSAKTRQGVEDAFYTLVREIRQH", "test": "SOS-catalyzed nucleotide exchange assay (Procedure A, TR-FRET), HRAS", "conditions": "read-out: HRAS GNE IC50", "summary_of_the_method": "as §1"}}, "data": [{"smiles": "C#Cc1c(F)ccc2cc(O)cc(-c3nccc4c5c(N6CCOC[C@@](C)(O)C6)nc(OC[C@@]67CCCN6C[C@H](F)C7)nc5n(C)c34)c12", "note": "[Ex-18, (S)-4-(8-(8-ethynyl-7-fluoro-3-hydroxynaphthalen-1-yl)-2-(((2R,7aS)-2-fluorotetrahydro-1H-pyrrolizin-7a(5H)-yl)methoxy)-9-methyl-9H-pyrido[4′,3′:4,5]pyrrolo[2,3-d]pyrimidin-4-yl)-6-methyl-1,4-oxazepan-6-ol]", "values": [{"measurement": "IC50", "setting": "[1]", "result": 10.5, "unit": "nM"}, {"measurement": "IC50", "setting": "KRAS-G12D", "result": 1.15, "unit": "nM"}, {"measurement": "IC50", "setting": "KRAS-G13D", "result": 2.66, "unit": "nM"}, {"measurement": "IC50", "setting": "HRAS", "result": 1820, "unit": "nM"}]}]}
